Test results published in ChEMBL document CHEMBL1201862, “PubChem BioAssay data set” (2004).
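Dose response: 5 concentrations. Exposure: 48 h. Format: 96-well plates. Endpoint: linear interpolation; highest concentration if not reached. GI50: concentration for 50% inhibition of growth.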 Active and inactive are the calls of the source. No stated cut-off is given here; in the data, active = GI50 up to about 1.1 µM and inactive = higher. Non-standard residues stand in square brackets, D forms with d. Residues, ends and D or L forms follow the SMILES beside them. *: point of attachment. NMeF = CN[CH](Cc1ccccc1)C(=O)O; NMeV = CN[CH](C(=O)O)C(C)C; Boc = CC(C)(C)OC(=O)*

Assays:
Experiment in all cases: growth of human tumour cells (NCI), 48 h
A549 = tested on: A549
DU-145 = tested on: DU-145
EKVX = tested on: EKVX
HL-60 = tested on: HL-60
Hs-578T = tested on: Hs-578T
KM12 = tested on: KM12
LOX IMVI = tested on: LOX IMVI
MDA-MB-231 = tested on: MDA-MB-231
MOLT-4 = tested on: MOLT-4
RPMI-8226 = tested on: RPMI-8226
SF-268 = tested on: SF-268
SF-539 = tested on: SF-539
SK-MEL-2 = tested on: SK-MEL-2
SN12C = tested on: SN12C
SR = tested on: SR
SW-620 = tested on: SW-620
T47D = tested on: T47D
UACC-62 = tested on: UACC-62
UO-31 = tested on: UO-31
MCF7 = tested on: MCF7

Measured: GI50

C=C(Br)CNC(=O)Nc1ccc(Cl)c(Cl)c1
inactive: A549 21.5 µM | DU-145 23.6 µM | EKVX 28.1 µM | HL-60 15.9 µM | Hs-578T 22.7 µM | KM12 17.3 µM | LOX IMVI 19.7 µM | MDA-MB-231 15.2 µM | MOLT-4 26.2 µM | RPMI-8226 17.3 µM | SF-268 27.3 µM | SF-539 19.3 µM | SK-MEL-2 12.6 µM | SN12C 25.2 µM | SR 30.9 µM | SW-620 35.4 µM | T47D 17.9 µM | UACC-62 18.8 µM | UO-31 11.4 µM

COc1ccc(-c2cc(=O)c3cc(O)ccc3o2)c(OC)c1OC
inactive: A549 35.6 µM | EKVX 12.2 µM | HL-60 15.7 µM | KM12 28.2 µM | LOX IMVI 21.7 µM | RPMI-8226 12.9 µM | SF-268 24.8 µM | SF-539 68.5 µM | SK-MEL-2 28.3 µM | SN12C 32.6 µM | SR 12.7 µM | SW-620 40.8 µM | UACC-62 28.7 µM

COc1ccc(-c2csc(Cc3nc4ccccc4c(=O)n3-c3ccc(Cl)cc3)n2)cc1
inactive: A549 22.7 µM | DU-145 84.5 µM | EKVX 18.2 µM | HL-60 32.6 µM | Hs-578T > 100 µM | KM12 31 µM | LOX IMVI 39.4 µM | MCF7 32.8 µM | MDA-MB-231 60.7 µM | MOLT-4 20 µM | RPMI-8226 15.9 µM | SF-268 27.5 µM | SK-MEL-2 17.8 µM | SW-620 58.3 µM | UACC-62 18.5 µM | UO-31 34.6 µM

COC(=O)[C@@H]1[C@H](O)[C@H](C)[C@H](O)[C@H](C)/C=C\C=C(\C)C(=O)Nc2c(C)c(OC(C)=O)c3c(c2O)C(=O)C(C)=C2OCOC(=C23)/C(C)=C/[C@@H](O)[C@H](O)[C@@H](C)[C@H]1OC(C)=O
inactive: DU-145 > 100 µM | EKVX > 100 µM | HL-60 5.36 µM | Hs-578T > 100 µM | KM12 95.3 µM | LOX IMVI 40 µM | MCF7 26.2 µM | MDA-MB-231 92.9 µM | MOLT-4 26.5 µM | RPMI-8226 15.5 µM | SF-268 78.2 µM | SN12C 36.8 µM | SR 33 µM | SW-620 32.1 µM | UO-31 38.5 µM

Cc1ccc(S(=O)(=O)NC(=O)NC(Cc2c[nH]c3ccccc23)C(=O)O)cc1 (stereo not given)
inactive: A549 > 100 µM | DU-145 > 100 µM | HL-60 > 100 µM | Hs-578T > 100 µM | KM12 > 100 µM | LOX IMVI > 100 µM | MDA-MB-231 > 100 µM | MOLT-4 > 100 µM | RPMI-8226 > 100 µM | SF-268 > 100 µM | SF-539 > 100 µM | SK-MEL-2 > 100 µM | SN12C > 100 µM | SR > 100 µM | SW-620 > 100 µM | T47D > 100 µM | UO-31 > 100 µM

O=C1C=C(c2c(-c3ccccc3)[nH]c3ccccc23)C(=O)N1c1ccccc1
inactive: A549 14.6 µM | DU-145 3.52 µM | EKVX 12.4 µM | HL-60 3.96 µM | Hs-578T 4.15 µM | LOX IMVI 3.77 µM | MCF7 6.19 µM | MDA-MB-231 11.3 µM | MOLT-4 25.2 µM | RPMI-8226 5.6 µM | SF-268 4.63 µM | SF-539 8.24 µM | SK-MEL-2 12.5 µM | SN12C 6.65 µM | SW-620 5.12 µM | UACC-62 10.7 µM | UO-31 13.9 µM

Cc1cccc2sc(NC(=O)c3cc([N+](=O)[O-])ccc3Cl)nc12
inactive: A549 3.86 µM | DU-145 3.33 µM | EKVX 11.4 µM | HL-60 72.9 µM | KM12 2.42 µM | LOX IMVI 2.01 µM | MCF7 1.68 µM | MDA-MB-231 4.73 µM | RPMI-8226 3.31 µM | SF-268 3.13 µM | SF-539 2.36 µM | SK-MEL-2 4.46 µM | SN12C 1.55 µM | SR > 100 µM | SW-620 2.42 µM | T47D 4.35 µM | UACC-62 3.61 µM | UO-31 2.34 µM

CC(C)OP(=O)(OC(C)C)/C(=N/Nc1ccc([N+](=O)[O-])cc1)Nc1ccccc1
inactive: A549 23.1 µM | EKVX 35.1 µM | HL-60 18.2 µM | KM12 20.8 µM | LOX IMVI 33.7 µM | MOLT-4 10.7 µM | RPMI-8226 20.3 µM | SF-268 25 µM | SF-539 33.9 µM | SK-MEL-2 40.1 µM | SN12C 48.6 µM | SR 16.6 µM | SW-620 33 µM | UACC-62 10.8 µM | UO-31 77.3 µM

C=C1C(=O)OC2C1CC[C@H](C)C13OC(=O)CC1[C@@]23C (stereo not given in full)
inactive: A549 > 100 µM | EKVX > 100 µM | HL-60 > 100 µM | KM12 > 100 µM | MOLT-4 > 100 µM | RPMI-8226 > 100 µM | SF-268 > 100 µM | SF-539 > 100 µM | SK-MEL-2 > 100 µM | SN12C > 100 µM | SR > 100 µM | SW-620 > 100 µM | UACC-62 > 100 µM | UO-31 > 100 µM

O=c1[nH]c(=O)n(CCOc2ccccc2)cc1Nc1ccccc1
inactive: A549 > 100 µM | DU-145 > 100 µM | EKVX > 100 µM | Hs-578T 52.5 µM | KM12 > 100 µM | LOX IMVI > 100 µM | MCF7 > 100 µM | MOLT-4 > 100 µM | RPMI-8226 > 100 µM | SF-268 43.3 µM | SN12C > 100 µM | SR > 100 µM | SW-620 > 100 µM | UACC-62 > 100 µM | UO-31 > 100 µM

CC(C)C(NC(=O)OC(C)(C)C)C(=O)N(C)C(Cc1ccccc1)C(=O)N(C)C(C(=O)O)C(C)C (stereo not drawn) (Boc-Val-[NMeF]-[NMeV]-OH; configuration not given here)
inactive: A549 > 100 µM | EKVX > 100 µM | HL-60 > 100 µM | KM12 > 100 µM | LOX IMVI > 100 µM | MOLT-4 > 100 µM | RPMI-8226 > 100 µM | SF-268 62.4 µM | SF-539 > 100 µM | SN12C > 100 µM | SR > 100 µM | SW-620 > 100 µM | UACC-62 > 100 µM | UO-31 > 100 µM

COc1ccc(OC)c(/C(C)=N/NC(N)=S)c1
inactive: A549 > 100 µM | EKVX > 100 µM | HL-60 > 100 µM | KM12 > 100 µM | LOX IMVI > 100 µM | MOLT-4 74.8 µM | RPMI-8226 > 100 µM | SF-268 > 100 µM | SF-539 > 100 µM | SK-MEL-2 > 100 µM | SN12C > 100 µM | SR > 100 µM | SW-620 > 100 µM | UACC-62 > 100 µM | UO-31 > 100 µM

COc1cc(S(=O)(=O)N/N=C/c2cc(Br)c(O)c(OC)c2)c(OC)cc1NC(C)=O
inactive: A549 > 100 µM | DU-145 85.9 µM | EKVX 55.5 µM | HL-60 25 µM | KM12 > 100 µM | LOX IMVI 38.6 µM | MCF7 57.4 µM | MDA-MB-231 52.6 µM | MOLT-4 42.9 µM | RPMI-8226 47.2 µM | SF-539 20.2 µM | SK-MEL-2 > 100 µM | SN12C 73.8 µM | SR 80.2 µM | SW-620 35.1 µM | T47D 41.3 µM | UO-31 > 100 µM

CC1=CC(=O)N2C(OC[C@@H]2c2ccccc2)O1 (stereo not given in full)
inactive: A549 > 100 µM | EKVX > 100 µM | HL-60 > 100 µM | KM12 > 100 µM | MOLT-4 > 100 µM | RPMI-8226 > 100 µM | SF-268 > 100 µM | SF-539 > 100 µM | SK-MEL-2 > 100 µM | SN12C > 100 µM | SR > 100 µM | SW-620 > 100 µM | UACC-62 > 100 µM | UO-31 > 100 µM

COc1ccc(Nc2nc3ccc(C(F)(F)F)cc3nc2C(=O)O)cc1
inactive: A549 29.4 µM | DU-145 49.1 µM | EKVX 31.5 µM | KM12 23.5 µM | LOX IMVI 32.5 µM | MCF7 36.6 µM | MDA-MB-231 66.4 µM | MOLT-4 29.5 µM | RPMI-8226 12.1 µM | SF-268 37.7 µM | SF-539 23.9 µM | SK-MEL-2 43.9 µM | SN12C 30.3 µM | SW-620 38.4 µM | T47D 33.4 µM | UACC-62 19.1 µM

CC(CC=O)Nc1nn2c(=O)c3ccccc3nc2s1 (stereo not given)
inactive: A549 > 100 µM | DU-145 > 100 µM | EKVX > 100 µM | Hs-578T > 100 µM | KM12 > 100 µM | LOX IMVI > 100 µM | MCF7 > 100 µM | MOLT-4 > 100 µM | RPMI-8226 > 100 µM | SF-268 > 100 µM | SF-539 > 100 µM | SK-MEL-2 > 100 µM | SN12C > 100 µM | SR > 100 µM | SW-620 > 100 µM | T47D > 100 µM | UACC-62 43.1 µM | UO-31 18.2 µM

COC[C@@H](/N=C/c1ccc(OC)cc1)C(C)C
inactive: A549 > 100 µM | DU-145 > 100 µM | EKVX > 100 µM | Hs-578T > 100 µM | KM12 > 100 µM | LOX IMVI > 100 µM | MCF7 > 100 µM | MOLT-4 > 100 µM | RPMI-8226 > 100 µM | SF-268 > 100 µM | SK-MEL-2 > 100 µM | SN12C > 100 µM | SR > 100 µM | SW-620 > 100 µM | T47D > 100 µM | UACC-62 > 100 µM | UO-31 > 100 µM
